Measurements from US11634466B2, “Musclin peptides and methods of use thereof” (UNIVERSITY OF IOWA RESEARCH FOUNDATION, priority 2016, dated 2023).

Key:
[1] = system: cGMP production in murine primary myoblasts; test: cGMP production in skeletal myoblast culture exposed to ANP and musclin; type: cell-based; settings: n=3
Description: Cyclic GMP levels were measured using cyclicGMP EIA kit (Cayman Chemical Company, Ann Arbor, Mich.). Mice were exercised for 5 days, 12 m/min, 45 min before tissue collection. At the day of the experiment mice were exercised 12 m/min, 20 min, sedated with isoflurane and gastrocnemius muscle tissue was collected. Cyclic nucleotides were extracted using 5% trichloracetic acid. Samples were acetylated and used for cGMP level measurements according to the manufacturer's protocol.
Mouse primary myoblasts were isolated from gastrocnemius muscle of 4-6 weeks old mice. Fresh muscle tissue was digested with 2 mg/ml collagenase II in DMEM-F12 for 1.5 h at 37° C.; then 30 min at 37° C. with 1 mg/ml collagenase II and 0.5 mg/ml dispase in DMEM-F12. Tissue was ground and passed through a 100 μm then 70 μm cell strainer and spun at 1000 rpm for 10 min. Myoblasts were resuspended in DMEM-F12 supplemented with 20% FBS, 40 ng/ml bFGF, non-essential amino acids, 1 mM β-mercaptoethanol. Cells were plated on matrigel coated dishes. Cells were maintained in DMEM-F12 supplemented with 20% FBS, 10 ng/ml bFGF, non-essential amino acids, 1 mM β-mercaptoethanol until 80% confluent. Then they were differentiated in DMEM-F12 supplemented with 2% FBS and insulin-transferrin-selenium for 10 days. Human skeletal myoblast primary culture (lot #SLSK002, Zenbio, Research Triangle Park, NC) was maintained according to the supplier's manual.

[2] = target: T1, NPRA (Homo sapiens, UniProt P16066); settings: background statement; without activating the linked guanylyl cyclase; cited from earlier work
T1 sequence (P16066 33-1061): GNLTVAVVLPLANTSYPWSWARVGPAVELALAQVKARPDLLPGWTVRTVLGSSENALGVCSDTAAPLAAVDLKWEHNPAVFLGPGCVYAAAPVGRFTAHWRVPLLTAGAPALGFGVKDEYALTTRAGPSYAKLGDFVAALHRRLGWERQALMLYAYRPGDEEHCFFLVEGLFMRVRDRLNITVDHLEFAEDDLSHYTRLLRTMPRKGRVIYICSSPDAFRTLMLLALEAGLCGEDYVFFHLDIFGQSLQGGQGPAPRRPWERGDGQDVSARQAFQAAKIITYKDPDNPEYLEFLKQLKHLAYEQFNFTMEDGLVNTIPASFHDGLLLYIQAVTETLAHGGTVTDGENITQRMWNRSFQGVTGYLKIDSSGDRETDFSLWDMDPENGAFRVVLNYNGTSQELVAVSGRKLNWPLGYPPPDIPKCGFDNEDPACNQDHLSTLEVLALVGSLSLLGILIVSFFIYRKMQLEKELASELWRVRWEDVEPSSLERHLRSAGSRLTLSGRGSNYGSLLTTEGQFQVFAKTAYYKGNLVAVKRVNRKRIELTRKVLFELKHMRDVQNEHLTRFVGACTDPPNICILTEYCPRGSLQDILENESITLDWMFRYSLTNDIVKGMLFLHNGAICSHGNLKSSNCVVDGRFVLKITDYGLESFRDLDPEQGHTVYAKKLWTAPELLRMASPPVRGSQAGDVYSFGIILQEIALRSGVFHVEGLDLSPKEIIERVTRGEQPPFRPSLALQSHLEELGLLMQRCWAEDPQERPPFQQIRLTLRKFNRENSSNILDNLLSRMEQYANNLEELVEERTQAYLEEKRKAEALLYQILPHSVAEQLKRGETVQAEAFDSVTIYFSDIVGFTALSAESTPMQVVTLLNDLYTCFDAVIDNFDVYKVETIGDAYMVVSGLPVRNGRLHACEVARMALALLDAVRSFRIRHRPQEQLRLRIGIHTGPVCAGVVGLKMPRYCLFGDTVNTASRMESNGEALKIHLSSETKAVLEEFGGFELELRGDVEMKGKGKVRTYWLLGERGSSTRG

[3] = target: T2, NPRB (Homo sapiens, UniProt P20594); settings: background statement; without activating the linked guanylyl cyclase; cited from earlier work
T2 sequence (P20594 23-1047): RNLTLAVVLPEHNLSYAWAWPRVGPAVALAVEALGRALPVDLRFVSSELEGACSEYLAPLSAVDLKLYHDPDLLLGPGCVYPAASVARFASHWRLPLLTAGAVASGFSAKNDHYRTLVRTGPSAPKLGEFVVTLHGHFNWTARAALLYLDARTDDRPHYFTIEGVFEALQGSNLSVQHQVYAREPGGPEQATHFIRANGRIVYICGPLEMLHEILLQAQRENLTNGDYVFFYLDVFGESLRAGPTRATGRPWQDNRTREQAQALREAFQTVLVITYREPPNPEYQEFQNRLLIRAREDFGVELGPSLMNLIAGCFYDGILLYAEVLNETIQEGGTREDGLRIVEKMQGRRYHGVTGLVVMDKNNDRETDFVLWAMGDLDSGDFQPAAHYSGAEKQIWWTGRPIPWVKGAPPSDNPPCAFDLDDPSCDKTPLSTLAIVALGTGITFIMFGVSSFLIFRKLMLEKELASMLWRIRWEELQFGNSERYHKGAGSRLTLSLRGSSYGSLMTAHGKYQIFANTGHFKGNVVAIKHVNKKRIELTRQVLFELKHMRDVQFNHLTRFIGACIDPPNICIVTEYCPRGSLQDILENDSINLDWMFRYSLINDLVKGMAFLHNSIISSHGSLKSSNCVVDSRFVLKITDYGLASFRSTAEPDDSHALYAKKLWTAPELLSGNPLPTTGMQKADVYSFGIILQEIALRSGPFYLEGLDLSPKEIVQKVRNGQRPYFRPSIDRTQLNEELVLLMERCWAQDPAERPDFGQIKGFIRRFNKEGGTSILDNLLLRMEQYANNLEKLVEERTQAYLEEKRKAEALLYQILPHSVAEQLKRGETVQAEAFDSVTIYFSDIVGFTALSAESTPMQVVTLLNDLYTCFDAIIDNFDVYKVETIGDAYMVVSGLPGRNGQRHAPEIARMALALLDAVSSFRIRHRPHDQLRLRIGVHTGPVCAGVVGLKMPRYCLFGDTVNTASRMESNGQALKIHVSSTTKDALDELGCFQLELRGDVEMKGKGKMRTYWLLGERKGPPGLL

Question: Which cGMP production ([1]; 1 μM musclin without ANP) does the source give for “H-SFSGFGSPLDRLSAGSVEHRGKQRKAVDHSKKR-OH [musclin]” here?
Answer: 0.104±0.006 fmol/μg protein

Question: And the cGMP production ([1]; 5 μM musclin without ANP)?
Answer: 0.117±0.003 fmol/μg protein

Question: And the “binding to NPRA” value [2]?
Answer: weak binding

Question: What about the “binding to NPRB” value [3] of the same substance?
Answer: weak binding
